Measured values reported in US8691799B2, “Materials and methods for treatment of cancer and identification of anti-cancer compounds” (priority 2001, dated 2014).

How the values were obtained:
[1] = tested on: STAT3-dependent pLucTKS3 luciferase reporter; assay: STAT3-dependent luciferase reporter assay in v-Src/NIH 3T3 fibroblasts; type: cell-based, murine; conditions: 10 μM, 24-48 hr
From the text: DNA Binding and Transcription. The STAT3 reporter, pLucTKS3, driving expression of firefly luciferase has been previously described (Turkson, J. et al. Mol. Cell Biol., 1999, 19:7519-7528). The pLucTKS3 plasmid harbors seven copies of a sequence corresponding to the STAT3-specific binding site in the promoter of the human C-reactive protein gene (Zhang, D. et al. J. Biol. Chem., 1996, 271:9503-9509). The STAT3-independent plasmid, pRLSRE, contains two copies of the serum response element (SRE) from the c-fos promoter (Yamauchi, K. et al. J. Biol. Chem., 1993, 268:14597-14600), subcloned into renilla luciferase reporter, pRL-null (Promega Corporation, Madison, Wis.).
Transfection and Generation of Stable Clones. […]
Preparation of Cytosolic Extracts. […] Cells were resuspended in 0.4 ml of low-salt HEPES buffer (10 mM HEPES, pH 7.8, 10 mM KCl, 0.1 mM EGTA, 0.1 mM EDTA, 1 mM PMSF, and 1 mM DTT) for 15 min, lysed by the addition of 20 μl of 10% NP-40, and centrifuged (10,000×g, 30 sec, 4° C.) to obtain the cytosolic supernatant, which was used for luciferase assays (Promega Corporation) measured with a luminometer.

[2] = tested on: B16-F10 melanoma; assay: Mouse survival, B16-F10 melanoma in C57 black mice; type: in vivo; conditions: 1 mg/Kg/day for 25 days, B16-F10 s.c.
From the text: Antitumor Activity in the Nude Mouse Tumor Xenograft Model. Nude mice and C57 BL-6 black mice (National Cancer Institute, Bethesda, Md.) were maintained in accordance with the Institutional Animal Care and Use Committee (IACUC) procedures and guidelines. v-Src- and oncogenic H-Ras-transformed NIH 3T3, A549, MDA-MB-468 and Calu-1 cells were harvested, resuspended in PBS and injected s.c. into the right and left flank (10×10^6 cells per flank) of 8 week old female nude mice as reported previously (Sun, J. et al. Cancer Res., 1999, 59:4919-4926). Similarly, murine B16-F10 Melanoma cells were injected s.c. into the right and left flank (10^6 cells per flank) of C57 black mice. When tumors reached about 150 mm^3, animals were randomized (five animals per group; two tumors per animal) and dosed i.p. with 0.2 ml once daily. Control animals received DMSO (20%) vehicle whereas treated animals were injected with JSI-124 (1 mg/kg/day) in 20% DMSO in water. The tumor volumes were determined by measuring the length (l) and the width (w) and calculating the volume (V=1w^2/2) as described previously (Sun, J. et al. Cancer Res., 1999, 59:4919-4926). Statistical significance between control and treated animals were evaluated by using Student's t-test. For the mouse survival experiments, C57 BL-6 black mice were implanted s.c. with B16-F10 cells (10^5 to 10^6 cells per flank). On day 5 after implantation the mice were randomized (6 animals per group) and treated with either vehicle or JSI-124 (1 mg/Kg/day) for 25 days. Percent surviving mice was determined by monitoring the death of mice until all mice died. Two experiments of 12 animals each (6 control and 6 treated with JSI-124) were carried out. For statistical analysis: for each of the two experiments, mice receiving JSI-124 were compared to those receiving vehicle control with respect to survival using the permutation log rank test as implemented in the statistical software package, ProcStatXact (p-values are two sided and exact).

[3] = tested on: Src; assay: Src kinase autophosphorylation assay on immunoprecipitates; type: biochemical; conditions: immunoprecipitates from A549, MDA-MB-468 or v-Src/NIH 3T3 cells
Method: Src Kinase Assay. A549, MDA-MB-468, and v-Src cells were harvested and lysed for 30 min on ice in RIPA150 buffer (10 mM Tris, pH 7.5, 150 mM NaCl, 10% glycerol, 5 mM EDTA, 1% Triton-X-100, 0.1% SDS, 100 μM sodium orthovanadate, 10 μg/ml aprotinin, 10 μg/ml leupeptin, 1 μg/ml antipain). Samples were spun at high speed to clear, then 1000 μg of protein were immunoprecipitated per treatment condition with 2 μg v-Src antibody (Ab-1, Oncogene Research Products, San Diego, Calif.) rocking overnight at 4° C. 25 μl of protein A/G PLUS agarose then was added and rocking continued for 4 hr at 4° C. Samples were spun to collect agarose pellet, and pellet washed three times in RIPA150 buffer, twice in RIPA10 buffer (10 mM Tris, pH 7.5, 10 mM NaCl, 10% glycerol, 5 mM EDTA, 1% Triton-X-100, 0.1% SDS, 100 μM sodium orthovanadate 10 μg/ml aprotinin, 10 μg/ml leupeptin, 1 μg/ml antipain), and three times in 40 mM Tris, pH 7.4. Pellet was then resuspended in 30 μl kinase reaction buffer (20 mM Tris, pH 7.4, 5 mM MgCl2) containing 10 μCi γ-[^32P]ATP. Inhibitors were preincubated for several minutes before the addition of the ATP. Kinase reactions were carried out at room temperature for 15 min. Reaction was stopped with the addition of 2×SDS-PAGE sample buffer. Samples were boiled and run on 10% SDS-PAGE gels. Autophosphorylation results were visualized by autoradiography.

CC(C)(O)/C=C/C(=O)[C@](C)(O)[C@H]1[C@H](O)C[C@@]2(C)[C@@H]3CC=C4[C@@H](C=C(O)C(=O)C4(C)C)[C@]3(C)C(=O)C[C@]12C [JSI-124, cucurbitacin I]
induction of STAT3-dependent pLucTKS3 luciferase reporter [1]: significantly suppresses | T50 (day until which 50% of mice survived) [2]: 34 days | T50 increase versus vehicle [2]: 13 days | day by which all mice died [2]: 42 days | day by which none of the treated mice were dead [2]: 23 days | Src kinase activity (autophosphorylation) in vitro [3]: not affected
